Data from publication PMC8703823, “The Role of TRPA1 Channels in the Central Processing of Odours Contributing to the Behavioural Responses of Mice” (Pharmaceuticals, 2021).

Experiments:
mTRPA1 = target: T1, mTRPA1 (Mus musculus, UniProt Q8BLA8); assay: Fluo-4 AM calcium influx, flow cytometry, CHO cells; type: cell-based
T1 construct: gene Trpa1; stably overexpressed in CHO cells

hTRPA1 = target: T2, hTRPA1 (Homo sapiens, UniProt O75762); assay: as above; type: cell-based
T2 construct: gene TRPA1; stably overexpressed in CHO cells
T2 sequence (O75762 whole entry): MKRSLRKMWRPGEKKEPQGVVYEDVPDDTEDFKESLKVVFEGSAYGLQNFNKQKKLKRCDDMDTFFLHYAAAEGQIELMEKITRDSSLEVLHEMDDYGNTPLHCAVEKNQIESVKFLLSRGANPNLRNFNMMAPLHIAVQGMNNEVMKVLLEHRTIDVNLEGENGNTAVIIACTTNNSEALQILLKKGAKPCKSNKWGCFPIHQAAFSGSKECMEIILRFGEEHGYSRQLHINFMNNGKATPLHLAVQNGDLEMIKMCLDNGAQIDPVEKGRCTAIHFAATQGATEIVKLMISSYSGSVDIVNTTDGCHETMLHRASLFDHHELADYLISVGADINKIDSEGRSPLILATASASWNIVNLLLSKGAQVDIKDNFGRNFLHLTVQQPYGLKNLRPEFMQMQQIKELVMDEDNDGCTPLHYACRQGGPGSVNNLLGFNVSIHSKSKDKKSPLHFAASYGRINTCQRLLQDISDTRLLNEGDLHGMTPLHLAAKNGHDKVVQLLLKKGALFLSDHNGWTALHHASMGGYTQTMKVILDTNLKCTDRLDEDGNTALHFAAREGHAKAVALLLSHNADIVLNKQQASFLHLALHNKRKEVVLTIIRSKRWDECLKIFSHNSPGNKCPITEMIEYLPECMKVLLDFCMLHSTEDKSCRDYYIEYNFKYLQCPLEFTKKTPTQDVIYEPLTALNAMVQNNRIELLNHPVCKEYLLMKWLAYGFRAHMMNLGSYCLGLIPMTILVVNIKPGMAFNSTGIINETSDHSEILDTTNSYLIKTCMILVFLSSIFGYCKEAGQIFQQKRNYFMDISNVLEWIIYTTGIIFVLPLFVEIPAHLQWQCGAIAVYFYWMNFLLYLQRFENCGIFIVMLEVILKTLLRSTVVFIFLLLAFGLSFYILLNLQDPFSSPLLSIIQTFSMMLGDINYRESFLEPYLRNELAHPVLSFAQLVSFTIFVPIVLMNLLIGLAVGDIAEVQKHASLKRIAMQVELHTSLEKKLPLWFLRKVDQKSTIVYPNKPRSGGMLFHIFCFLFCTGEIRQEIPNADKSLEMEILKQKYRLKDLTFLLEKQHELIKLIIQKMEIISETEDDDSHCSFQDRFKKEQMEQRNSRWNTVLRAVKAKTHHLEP

T1 sequence (Q8BLA8 whole entry): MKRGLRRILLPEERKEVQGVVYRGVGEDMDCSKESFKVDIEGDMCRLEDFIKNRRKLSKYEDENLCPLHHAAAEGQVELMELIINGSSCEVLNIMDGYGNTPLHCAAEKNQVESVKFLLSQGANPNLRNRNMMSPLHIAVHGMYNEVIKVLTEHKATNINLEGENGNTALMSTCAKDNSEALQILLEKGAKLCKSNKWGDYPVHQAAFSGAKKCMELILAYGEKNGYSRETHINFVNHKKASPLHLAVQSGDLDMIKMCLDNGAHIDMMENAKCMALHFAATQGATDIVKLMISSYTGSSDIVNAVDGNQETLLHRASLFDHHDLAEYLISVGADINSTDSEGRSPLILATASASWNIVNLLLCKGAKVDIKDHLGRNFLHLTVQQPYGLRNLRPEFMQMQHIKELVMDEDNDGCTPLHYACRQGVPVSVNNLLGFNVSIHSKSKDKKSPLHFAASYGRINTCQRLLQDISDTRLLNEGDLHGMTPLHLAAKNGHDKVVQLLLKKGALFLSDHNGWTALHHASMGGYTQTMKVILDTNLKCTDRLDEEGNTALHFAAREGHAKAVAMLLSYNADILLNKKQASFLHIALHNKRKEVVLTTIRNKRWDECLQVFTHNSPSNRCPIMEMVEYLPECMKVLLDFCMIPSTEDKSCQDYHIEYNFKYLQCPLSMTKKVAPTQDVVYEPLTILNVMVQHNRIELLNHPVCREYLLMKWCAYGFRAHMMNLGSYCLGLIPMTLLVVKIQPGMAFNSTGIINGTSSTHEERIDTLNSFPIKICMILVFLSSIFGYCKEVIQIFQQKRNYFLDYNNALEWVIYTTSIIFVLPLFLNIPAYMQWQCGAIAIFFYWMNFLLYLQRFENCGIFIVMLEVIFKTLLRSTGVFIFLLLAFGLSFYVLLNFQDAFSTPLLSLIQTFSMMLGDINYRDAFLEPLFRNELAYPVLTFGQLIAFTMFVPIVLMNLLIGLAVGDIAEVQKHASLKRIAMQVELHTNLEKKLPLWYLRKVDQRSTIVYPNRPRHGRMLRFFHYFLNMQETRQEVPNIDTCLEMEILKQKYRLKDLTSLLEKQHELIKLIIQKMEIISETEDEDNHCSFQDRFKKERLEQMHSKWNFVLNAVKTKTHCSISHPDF

EC50 (mTRPA1): 4.42 mM | EC50 (hTRPA1): 5.01 mM
Compound: CC1=NCCS1 [2-MT, 2-methyl-2-thiazoline]
